Laboratory results reported in PMC7915026, “Sulfaguanidine Hybrid with Some New Pyridine-2-One Derivatives: Design, Synthesis, and Antimicrobial Activity against Multidrug-Resistant Bacteria as Dual DNA Gyrase and DHFR Inhibitors” (Antibiotics, 2021).
Converted amounts (≈) assume the structure as drawn. Read-outs that look alike come from different tables or passages of the source.

Experiments:
C. albicans (ATCC 10231) [1] = experiment: Inhibition zone, paper disk/agar diffusion; assay type: cell-based; conditions: Na = no activity
How it was run: (§1)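 Values are inhibition zone diameters in millimetres. These were measured after applying the derivatives to agar plates by diffusion, and norfloxacin served as the reference drug.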

E. coli ATCC 25922 [2] = experiment: Inhibition zone, paper disk/agar diffusion; assay type: cell-based; conditions: E. coli; Na = no activity
How it was run: as §1

E. faecalis ATCC 29212 [3] = experiment: Inhibition zone, paper disk/agar diffusion; assay type: cell-based; conditions: E. faecalis; Na = no activity
How it was run: as §1

[4] = tested on: F. oxysporum (RCMB 008002); experiment: Inhibition zone, paper disk/agar diffusion; assay type: cell-based; conditions: Na = no activity
How it was run: as §1

P. aeruginosa ATCC 27853 = experiment: Inhibition zone, paper disk/agar diffusion; assay type: cell-based; conditions: P. aeruginosa; Na = no activity
How it was run: as §1

S. aureus ATCC 29213 [5] = experiment: Inhibition zone, paper disk/agar diffusion; assay type: cell-based; conditions: S. aureus; Na = no activity
How it was run: as §1

S. typhi ATCC 6539 = experiment: Inhibition zone, paper disk/agar diffusion; assay type: cell-based; conditions: S. typhi; Na = no activity
How it was run: as §1

B. subtilis ATCC 6633 = experiment: MIC and MBC determination; assay type: cell-based; conditions: B. subtilis
S. aureus ATCC 29213 [6] = experiment: MIC and MBC determination; assay type: cell-based; conditions: S. aureus
E. faecalis ATCC 29212 [7] = experiment: MIC and MBC determination; assay type: cell-based; conditions: Enterococcus faecalis, ATCC29212, E. faecalis
E. coli ATCC 25922 [8] = experiment: MIC and MBC determination; assay type: cell-based; conditions: E. coli
[9] = tested on: Salmonella typhi (S. typhi ATCC 6539); experiment: microbe, parasite or virus in culture; assay type: cell-based; conditions: Salmonella enterica, Salmonella typhi
C. albicans (ATCC 10231) [10] = experiment: MIC and MFC determination; assay type: cell-based
[11] = tested on: F. oxysporum (RCMB 008002); experiment: MIC and MFC determination; assay type: cell-based
E. coli ATCC BAA-196 [12] = experiment: Inhibition zone against multidrug-resistant bacteria; assay type: cell-based; conditions: MDRB E. coli ATCC BAA-196
How it was run: as §1

[13] = tested on: P. aeruginosa ATCC BAA-2111; experiment: as above; assay type: cell-based; conditions: MDRB P. aeruginosa ATCC BAA-2111
How it was run: as §1

S. aureus ATCC 33591 [14] = experiment: as above; assay type: cell-based; conditions: MDRB S. aureus ATCC 33591
How it was run: as §1

S. aureus ATCC 43300 [15] = experiment: as above; assay type: cell-based; conditions: MDRB S. aureus ATCC 43300
How it was run: as §1

E. coli ATCC BAA-196 [16] = experiment: MIC and MBC against multidrug-resistant strains; assay type: cell-based; conditions: E. coli ATCC BAA-196
From the text: (§2) Norfloxacin was used as a positive control for the multidrug resistance study.
(§3) The experiment was repeating for three-times.

[17] = tested on: P. aeruginosa ATCC BAA-2111; experiment: MIC and MBC against multidrug-resistant strains; assay type: cell-based; conditions: P. aeruginosa ATCC BAA-2111
From the text: as §2, §3

S. aureus ATCC 33591 [18] = experiment: MIC and MBC against multidrug-resistant strains; assay type: cell-based; conditions: Staphylococcus aureus, ATCC33591, S. aureus ATCC 33591
From the text: as §2, §3

S. aureus ATCC 43300 [19] = experiment: MIC and MBC against multidrug-resistant strains; assay type: cell-based; conditions: Staphylococcus aureus, ATCC43300, S. aureus ATCC 43300
From the text: as §2, §3

S. aureus DNA gyrase = S. aureus DNA gyrase (Staphylococcus aureus, UniProt P0A0K8+P20831); experiment: In vitro DNA gyrase supercoiling enzymatic assay; assay type: biochemical
S. aureus DNA gyrase, sequence (P20831 whole entry): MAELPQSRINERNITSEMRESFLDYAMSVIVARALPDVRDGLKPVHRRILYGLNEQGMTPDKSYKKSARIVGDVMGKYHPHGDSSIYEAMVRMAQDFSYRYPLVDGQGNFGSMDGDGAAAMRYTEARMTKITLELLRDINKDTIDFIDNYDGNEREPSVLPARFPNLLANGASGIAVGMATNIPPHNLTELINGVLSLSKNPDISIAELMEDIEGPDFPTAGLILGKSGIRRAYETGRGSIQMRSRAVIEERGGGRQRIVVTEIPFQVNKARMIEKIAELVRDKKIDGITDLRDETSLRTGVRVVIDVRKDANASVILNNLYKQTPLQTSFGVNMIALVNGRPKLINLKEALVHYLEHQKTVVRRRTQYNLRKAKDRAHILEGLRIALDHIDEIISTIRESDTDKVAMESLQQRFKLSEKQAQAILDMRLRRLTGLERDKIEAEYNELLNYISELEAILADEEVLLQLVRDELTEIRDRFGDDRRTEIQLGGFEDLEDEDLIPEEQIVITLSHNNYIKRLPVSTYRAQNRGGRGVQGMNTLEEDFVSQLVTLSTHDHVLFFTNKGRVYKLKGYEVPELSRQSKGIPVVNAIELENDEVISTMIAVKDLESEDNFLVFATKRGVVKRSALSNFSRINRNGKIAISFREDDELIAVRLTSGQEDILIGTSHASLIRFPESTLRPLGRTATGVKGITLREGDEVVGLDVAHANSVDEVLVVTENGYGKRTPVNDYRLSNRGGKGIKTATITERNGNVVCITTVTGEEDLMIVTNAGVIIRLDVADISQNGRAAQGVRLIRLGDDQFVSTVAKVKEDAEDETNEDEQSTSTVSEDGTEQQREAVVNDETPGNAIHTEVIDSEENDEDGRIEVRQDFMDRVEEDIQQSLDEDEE
S. aureus DNA gyrase, sequence (P0A0K8 whole entry): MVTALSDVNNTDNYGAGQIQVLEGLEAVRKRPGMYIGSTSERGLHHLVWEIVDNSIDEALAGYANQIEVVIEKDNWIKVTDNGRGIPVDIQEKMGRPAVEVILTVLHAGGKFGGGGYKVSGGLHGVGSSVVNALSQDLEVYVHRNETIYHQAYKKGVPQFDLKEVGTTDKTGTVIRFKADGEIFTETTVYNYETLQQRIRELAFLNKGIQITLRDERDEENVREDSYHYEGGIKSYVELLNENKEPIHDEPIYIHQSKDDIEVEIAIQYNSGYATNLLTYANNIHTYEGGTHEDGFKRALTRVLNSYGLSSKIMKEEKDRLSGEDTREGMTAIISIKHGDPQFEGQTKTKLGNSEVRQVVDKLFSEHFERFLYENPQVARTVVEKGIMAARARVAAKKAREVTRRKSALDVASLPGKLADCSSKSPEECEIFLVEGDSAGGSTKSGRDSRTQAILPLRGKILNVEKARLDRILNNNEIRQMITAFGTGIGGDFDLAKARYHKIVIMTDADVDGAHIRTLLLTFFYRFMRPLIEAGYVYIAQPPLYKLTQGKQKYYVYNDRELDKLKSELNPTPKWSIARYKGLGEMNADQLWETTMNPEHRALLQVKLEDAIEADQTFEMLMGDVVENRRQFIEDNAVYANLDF

[20] = biological target: E. coli DHFR (dihydrofolate reductase) (Escherichia coli, UniProt P0ABQ4); experiment: In vitro DHFR enzymatic assay; assay type: biochemical
E. coli DHFR (dihydrofolate reductase), sequence (P0ABQ4 whole entry): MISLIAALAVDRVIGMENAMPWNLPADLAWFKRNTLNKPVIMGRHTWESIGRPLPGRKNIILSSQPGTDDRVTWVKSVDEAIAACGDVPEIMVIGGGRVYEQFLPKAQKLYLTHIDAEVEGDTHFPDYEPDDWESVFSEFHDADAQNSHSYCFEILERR

neutrophils = experiment: In vitro intracellular killing, nitro blue tetrazolium (NBT) reduction assay; assay type: cell-based
Description: One of the broad methods used for determining immune disorders for patients in hospitals is the NBT test to measure their immune responses. The reduction in NBT dye provides information about the phagocytic and intracellular killing functions of neutrophils, which are important for microbiocidal activity. The most promising derivatives (2a, 2b, 2d, 3a, 8, and 11) were evaluated against in vitro intracellular killing activities using a nitro blue tetrazolium (NBT) reduction assay and the obtained results expressed in percentage (%): increasing the percentage led to an improvement in the killing ability of the neutrophils used as innate immunity.
In vitro intracellular killing activities for the most promising six derivatives 2a, 2b, 2d, 3a, 8, and 11 were performed according to reported methods.

spleen and thymus = experiment: In vivo immunomodulation: immune organ weight and indexes; parameters: Spleen index: unit not given here; conditions: mice
From the text: Both the spleen and thymus have important antibacterial and fungal immune organ responses, and any change in weight, and indexes can reflect the level of immune regulation. Additionally, the relative spleen and thymus indexes are important indices for nonspecific immunity and potential immunomodulatory compounds that increase the spleen and thymus weight. This increase is due to immune cells’ stimulation in the spleen and thymus. […]

In the case of `COc1ccc(/C=C(\C#N)C(=O)Nc2ccc(S(=O)(=O)NC(=N)N)cc2)cc1O` [Compound 2d, N-(4-(N-Carbamimidoylsulfamoyl)phenyl)-2-cyano-3-(3-hydroxy-4-methoxyphenyl) acryl-amide], the “Mean Diameter of the Inhibition Zone” value (C. albicans (ATCC 10231) [1]) is reported as 27 ± 0.50 mm, the “Mean Diameter of the Inhibition Zone” value (E. coli ATCC 25922 [2]) is reported as 30 ± 0.29 mm and the “Mean Diameter of the Inhibition Zone” value (E. faecalis ATCC 29212 [3]) is reported as 29 ± 0.17 mm. The “Mean Diameter of the Inhibition Zone” value [4] was 22 ± 0.11 mm, the “Mean Diameter of the Inhibition Zone” value (P. aeruginosa ATCC 27853) was 27 ± 0.73 mm and the “Mean Diameter of the Inhibition Zone” value (S. aureus ATCC 29213 [5]) was 33 ± 0.53 mm. The “Mean Diameter of the Inhibition Zone” value (S. typhi ATCC 6539) was 29 ± 0.20 mm, the MBC (B. subtilis ATCC 6633) was 9.38 ± 0.96 µM (≈ 3.9 µg/mL) and the MIC (B. subtilis ATCC 6633) was 4.69 ± 0.98 µM (≈ 1.95 µg/mL). The MBC (B. subtilis ATCC 6633; Bacillus subtilis, ATCC6633, read-out: MBC) was 9.38 µM (≈ 3.9 µg/mL), the MIC (B. subtilis ATCC 6633; Bacillus subtilis, ATCC6633, read-out: MIC) was 4.69 µM (≈ 1.95 µg/mL) and the MBC (S. aureus ATCC 29213 [6]) was 13.40 ± 0.54 µM (≈ 5.57 µg/mL). It also gave an MIC (S. aureus ATCC 29213 [6]) of 13.40 ± 0.98 µM (≈ 5.57 µg/mL), an MBC (S. aureus ATCC 29213 [6]; Staphylococcus aureus, ATCC29213, read-out: MBC) of 13.4 µM (≈ 5.57 µg/mL) and an MIC (S. aureus ATCC 29213 [6]; Staphylococcus aureus, ATCC29213, read-out: MIC) of 13.4 µM (≈ 5.57 µg/mL). For the same compound, the MBC (E. faecalis ATCC 29212 [7]; read-out: MBC) was 15.9 ± 0.58 µM (≈ 6.63 µg/mL), the MIC (E. faecalis ATCC 29212 [7]; read-out: MIC) was 9.38 ± 0.24 µM (≈ 3.9 µg/mL) and the MBC (E. coli ATCC 25922 [8]) was 4.66 ± 0.21 µM (≈ 1.94 µg/mL). The MIC (E. coli ATCC 25922 [8]) was 2.33 ± 0.32 µM (≈ 0.968 µg/mL), the MBC (E. coli ATCC 25922 [8]; Escherichia coli, ATCC25922, read-out: MBC) was 4.66 µM (≈ 1.94 µg/mL) and the MIC (E. coli ATCC 25922 [8]; Escherichia coli, ATCC25922, read-out: MIC) was 2.33 µM (≈ 0.968 µg/mL). It also gave an MBC ([9]; read-out: MBC) of 30.1 ± 0.75 µM (≈ 12.5 µg/mL), an MIC ([9]; read-out: MIC) of 18.8 ± 0.85 µM (≈ 7.81 µg/mL) and an MFC (C. albicans (ATCC 10231) [10]) of 37.60 ± 0.38 µM (≈ 15.6 µg/mL). For the same compound, the MFC/MIC (C. albicans (ATCC 10231) [10]) was less than 2, the MIC (C. albicans (ATCC 10231) [10]) was 18.80 ± 0.65 µM (≈ 7.81 µg/mL) and the MFC (C. albicans (ATCC 10231) [10]; Candida albicans, ATCC10231, read-out: MFC) was 37.6 µM (≈ 15.6 µg/mL). For the same compound, the MIC (C. albicans (ATCC 10231) [10]; Candida albicans, ATCC10231, read-out: MIC) was 18.8 µM (≈ 7.81 µg/mL), the MFC [11] was 66.84 ± 0.85 µM (≈ 27.8 µg/mL) and the MFC/MIC [11] was less than 2. For the same compound, the MIC [11] was 37.60 ± 0.25 µM (≈ 15.6 µg/mL), the MFC ([11]; Fusarium oxysporum, RCMB008002, read-out: MFC) was 66.8 µM (≈ 27.8 µg/mL) and the MIC ([11]; Fusarium oxysporum, RCMB008002, read-out: MIC) was 37.6 µM (≈ 15.6 µg/mL). For the same compound, the “Mean Diameter of Inhibition Zone” value (E. coli ATCC BAA-196 [12]) was 25 ± 0.86 mm, the “Mean Diameter of Inhibition Zone” value [13] was 26 ± 0.41 mm and the “Mean Diameter of Inhibition Zone” value (S. aureus ATCC 33591 [14]) was 24 ± 0.32 mm. The “Mean Diameter of Inhibition Zone” value (S. aureus ATCC 43300 [15]) was 27 ± 0.3 mm, the MBC (E. coli ATCC BAA-196 [16]) was 9.38 ± 0.54 µM (≈ 3.9 µg/mL) and the MIC (E. coli ATCC BAA-196 [16]) was 4.69 ± 0.36 µM (≈ 1.95 µg/mL). The MBC (E. coli ATCC BAA-196 [16]; Escherichia coli, ATCCBAA196, read-out: MBC) was 9.38 µM (≈ 3.9 µg/mL), the MIC (E. coli ATCC BAA-196 [16]; Escherichia coli, ATCCBAA196, read-out: MIC) was 4.69 µM (≈ 1.95 µg/mL) and the MBC [17] was 18.77 ± 0.61 µM (≈ 7.8 µg/mL). For the same compound, the MIC [17] was 9.38 ± 0.49 µM (≈ 3.9 µg/mL), the MBC ([17]; Pseudomonas aeruginosa, ATCCBAA2111, read-out: MBC) was 18.8 µM (≈ 7.8 µg/mL) and the MIC ([17]; Pseudomonas aeruginosa, ATCCBAA2111, read-out: MIC) was 9.38 µM (≈ 3.9 µg/mL). The MBC (S. aureus ATCC 33591 [18]; read-out: MBC) was 18.8 ± 0.25 µM (≈ 7.8 µg/mL), the MIC (S. aureus ATCC 33591 [18]; read-out: MIC) was 9.38 ± 0.32 µM (≈ 3.9 µg/mL) and the MBC (S. aureus ATCC 43300 [19]; read-out: MBC) was 9.38 ± 0.41 µM (≈ 3.9 µg/mL). It also gave an MIC (S. aureus ATCC 43300 [19]; read-out: MIC) of 4.69 ± 0.25 µM (≈ 1.95 µg/mL), an IC50 (S. aureus DNA gyrase) of 18.2 ± 1.18 µM and an IC50 [20] of 4.33 ± 0.18 µM. The “fold relative to trimethoprim” value ([20]; E. coli DHFR IC50) was 1.19 fold, the “Intracellular Killing Activity” value (neutrophils) was 142.4 ± 0.98% and the Spleen index (spleen and thymus) was 0.018 ± 0.00. For the same compound, the Spleen weight (spleen and thymus) was 250 ± 0.03 mg, the Thymus index (spleen and thymus) was 0.532 ± 0.06 mg/g and the Thymus weight (spleen and thymus) was 15.56 ± 0.54 mg.
